Test: xn = mol fraction of the nth substance listed
Settings: 101 kPa

`C[NH+](C)C.O=S(=O)([N-]S(=O)(=O)C(F)(F)F)C(F)(F)F` + CC1COC(=O)O1 gave an electrical conductivity (264.45 K, x2 = 0.701) of 0.519 S/m, an electrical conductivity (273.15 K, x2 = 0.701) of 0.687 S/m and an electrical conductivity (283.15 K, x2 = 0.701) of 1 S/m. It also gave an electrical conductivity (293.15 K, x2 = 0.701) of 1.34 S/m, an electrical conductivity (298.15 K, x1 = 0.0002) of 0.011 S/m and an electrical conductivity (298.15 K, x1 = 0.0005) of 0.022 S/m. It also gave an electrical conductivity (298.15 K, x1 = 0.002) of 0.066 S/m, an electrical conductivity (298.15 K, x1 = 0.0055) of 0.155 S/m and an electrical conductivity (298.15 K, x2 = 0.5091) of 1.41 S/m. It also gave an electrical conductivity (298.15 K, x2 = 0.5632) of 1.5 S/m, an electrical conductivity (298.15 K, x2 = 0.6802) of 1.66 S/m and an electrical conductivity (298.15 K, x2 = 0.843) of 1.43 S/m. For the same compound, the electrical conductivity (303.15 K, x2 = 0.701) was 1.74 S/m, the electrical conductivity (313.15 K, x2 = 0.701) was 2.16 S/m and the electrical conductivity (323.15 K, x2 = 0.701) was 2.61 S/m. For the same compound, the electrical conductivity (333.15 K, x2 = 0.701) was 3.09 S/m, the electrical conductivity (343.15 K, x2 = 0.701) was 3.59 S/m and the electrical conductivity (353.15 K, x2 = 0.701) was 4.1 S/m.
Compound `C[S+](C)C.O=S(=O)([N-]S(=O)(=O)C(F)(F)F)C(F)(F)F` + CC1COC(=O)O1 has an electrical conductivity (265.55 K, x2 = 0.76) of 0.468 S/m, an electrical conductivity (276.95 K, x2 = 0.76) of 0.708 S/m and an electrical conductivity (294.65 K, x2 = 0.76) of 1.18 S/m. For the same compound, the electrical conductivity (298.15 K, x1 = 0.0001) was 0.009 S/m, the electrical conductivity (298.15 K, x1 = 0.0003) was 0.023 S/m and the electrical conductivity (298.15 K, x1 = 0.0053) was 0.177 S/m. For the same compound, the electrical conductivity (298.15 K, x2 = 0.5156) was 1.07 S/m, the electrical conductivity (298.15 K, x2 = 0.565) was 1.21 S/m and the electrical conductivity (298.15 K, x2 = 0.6897) was 1.37 S/m. It also gave an electrical conductivity (298.15 K, x2 = 0.7404) of 1.39 S/m, an electrical conductivity (298.15 K, x2 = 0.8098) of 1.34 S/m and an electrical conductivity (298.15 K, x2 = 0.8571) of 1.25 S/m. For the same compound, the electrical conductivity (298.15 K, x2 = 0.9218) was 0.964 S/m, the electrical conductivity (298.15 K, x2 = 0.9792) was 0.39 S/m and the electrical conductivity (303.15 K, x2 = 0.76) was 1.44 S/m. It also gave an electrical conductivity (313.15 K, x2 = 0.76) of 1.8 S/m, an electrical conductivity (323.15 K, x2 = 0.76) of 2.16 S/m and an electrical conductivity (343.15 K, x2 = 0.76) of 2.94 S/m. For the same compound, the electrical conductivity (353.15 K, x2 = 0.76) was 3.34 S/m.
`C[NH+](C)C.O=S(=O)([N-]S(=O)(=O)C(F)(F)F)C(F)(F)F` + CC#N showed an electrical conductivity (265.55 K, x2 = 0.86) of 4.31 S/m, an electrical conductivity (273.15 K, x2 = 0.86) of 4.81 S/m and an electrical conductivity (283.15 K, x2 = 0.86) of 5.49 S/m. For the same compound, the electrical conductivity (293.15 K, x2 = 0.86) was 6.17 S/m, the electrical conductivity (298.15 K, x1 = 0.0001) was 0.022 S/m and the electrical conductivity (298.15 K, x1 = 0.0004) was 0.273 S/m. For the same compound, the electrical conductivity (298.15 K, x1 = 0.0008) was 0.438 S/m, the electrical conductivity (298.15 K, x1 = 0.0021) was 0.755 S/m and the electrical conductivity (298.15 K, x1 = 0.0083) was 1.81 S/m. The electrical conductivity (298.15 K, x2 = 0.5587) was 3.69 S/m, the electrical conductivity (298.15 K, x2 = 0.6) was 4.08 S/m and the electrical conductivity (298.15 K, x2 = 0.72) was 5.54 S/m. The electrical conductivity (298.15 K, x2 = 0.78) was 6.28 S/m, the electrical conductivity (298.15 K, x2 = 0.84) was 6.76 S/m and the electrical conductivity (298.15 K, x2 = 0.8901) was 6.73 S/m. It also gave an electrical conductivity (298.15 K, x2 = 0.938) of 5.86 S/m, an electrical conductivity (298.15 K, x2 = 0.9677) of 4.21 S/m and an electrical conductivity (313.15 K, x2 = 0.86) of 7.54 S/m. For the same compound, the electrical conductivity (323.15 K, x2 = 0.86) was 8.22 S/m, the electrical conductivity (333.15 K, x2 = 0.86) was 8.88 S/m and the electrical conductivity (343.15 K, x2 = 0.86) was 9.57 S/m. It also gave an electrical conductivity (353.15 K, x2 = 0.86) of 10.2 S/m.
`C[S+](C)C.O=S(=O)([N-]S(=O)(=O)C(F)(F)F)C(F)(F)F` + CC#N showed an electrical conductivity (283.15 K, x2 = 0.87) of 4.66 S/m, an electrical conductivity (293.45 K, x2 = 0.87) of 5.28 S/m and an electrical conductivity (298.15 K, x1 = 0.0001) of 0.043 S/m. It also gave an electrical conductivity (298.15 K, x1 = 0.0002) of 0.103 S/m, an electrical conductivity (298.15 K, x1 = 0.0003) of 0.148 S/m and an electrical conductivity (298.15 K, x1 = 0.0033) of 0.839 S/m. It also gave an electrical conductivity (298.15 K, x1 = 0.0129) of 2.17 S/m, an electrical conductivity (298.15 K, x2 = 0.4883) of 2 S/m and an electrical conductivity (298.15 K, x2 = 0.56) of 2.74 S/m. For the same compound, the electrical conductivity (298.15 K, x2 = 0.64) was 3.56 S/m, the electrical conductivity (298.15 K, x2 = 0.72) was 4.44 S/m and the electrical conductivity (298.15 K, x2 = 0.8) was 5.35 S/m. The electrical conductivity (298.15 K, x2 = 0.86) was 5.74 S/m, the electrical conductivity (298.15 K, x2 = 0.9497) was 4.59 S/m and the electrical conductivity (303.25 K, x2 = 0.87) was 5.88 S/m. The electrical conductivity (313.15 K, x2 = 0.87) was 6.45 S/m, the electrical conductivity (333.15 K, x2 = 0.87) was 7.48 S/m and the electrical conductivity (343.15 K, x2 = 0.87) was 8.05 S/m. It also gave an electrical conductivity (353.15 K, x2 = 0.87) of 8.67 S/m.
Compound `O=C1CCCO1` + C[NH+](C)C.O=S(=O)([N-]S(=O)(=O)C(F)(F)F)C(F)(F)F has a viscosity (298.15 K, x1 = 1) of 1.74 mPa·s, a viscosity (303.15 K, x1 = 1) of 1.61 mPa·s and a viscosity (313.15 K, x1 = 1) of 1.39 mPa·s. The viscosity (323.15 K, x1 = 1) was 1.22 mPa·s and the viscosity (343.15 K, x1 = 1) was 0.96 mPa·s.
Work on `C[NH+](C)C.O=S(=O)([N-]S(=O)(=O)C(F)(F)F)C(F)(F)F` + O=C1CCCO1 yielded an electrical conductivity (263.15 K, x2 = 0.74) of 0.948 S/m, an electrical conductivity (273.15 K, x2 = 0.74) of 1.19 S/m and an electrical conductivity (283.15 K, x2 = 0.74) of 1.61 S/m. The electrical conductivity (293.15 K, x2 = 0.74) was 2.01 S/m, the electrical conductivity (298.15 K, x1 = 0.0001) was 0.005 S/m and the electrical conductivity (298.15 K, x1 = 0.0003) was 0.027 S/m. It also gave an electrical conductivity (298.15 K, x1 = 0.0046) of 0.214 S/m, an electrical conductivity (298.15 K, x1 = 0.0188) of 0.613 S/m and an electrical conductivity (298.15 K, x2 = 0.5778) of 2.09 S/m. It also gave a viscosity (298.15 K, x2 = 0.5976) of 6.89 mPa·s, an electrical conductivity (298.15 K, x2 = 0.639) of 2.26 S/m and a viscosity (298.15 K, x2 = 0.672) of 5.66 mPa·s. For the same compound, the electrical conductivity (298.15 K, x2 = 0.6802) was 2.35 S/m, the electrical conductivity (298.15 K, x2 = 0.7426) was 2.44 S/m and the viscosity (298.15 K, x2 = 0.7428) was 4.51 mPa·s. The electrical conductivity (298.15 K, x2 = 0.8047) was 2.36 S/m, the viscosity (298.15 K, x2 = 0.8088) was 3.5 mPa·s and the electrical conductivity (298.15 K, x2 = 0.8692) was 2.06 S/m. It also gave a viscosity (298.15 K, x2 = 0.8803) of 2.64 mPa·s, an electrical conductivity (298.15 K, x2 = 0.9328) of 1.44 S/m and a viscosity (303.15 K, x2 = 0.5976) of 5.87 mPa·s. The viscosity (303.15 K, x2 = 0.672) was 4.85 mPa·s, the electrical conductivity (303.15 K, x2 = 0.74) was 2.49 S/m and the viscosity (303.15 K, x2 = 0.7428) was 3.91 mPa·s. For the same compound, the viscosity (313.15 K, x2 = 0.5976) was 4.35 mPa·s, the electrical conductivity (313.15 K, x2 = 0.74) was 2.97 S/m and the viscosity (313.15 K, x2 = 0.7428) was 3.01 mPa·s. It also gave a viscosity (313.15 K, x2 = 0.8088) of 2.35 mPa·s, a viscosity (323.15 K, x2 = 0.5976) of 3.39 mPa·s and a viscosity (323.15 K, x2 = 0.672) of 2.84 mPa·s. The electrical conductivity (323.15 K, x2 = 0.74) was 3.47 S/m, the viscosity (323.15 K, x2 = 0.7428) was 2.29 mPa·s and the viscosity (323.15 K, x2 = 0.8088) was 1.91 mPa·s. The viscosity (323.15 K, x2 = 0.8803) was 1.49 mPa·s, the viscosity (333.15 K, x2 = 0.5976) was 2.74 mPa·s and the viscosity (333.15 K, x2 = 0.672) was 2.34 mPa·s. For the same compound, the viscosity (333.15 K, x2 = 0.8088) was 1.48 mPa·s, the viscosity (333.15 K, x2 = 0.8803) was 1.2 mPa·s and the electrical conductivity (335.15 K, x2 = 0.74) was 4.11 S/m. For the same compound, the viscosity (343.15 K, x2 = 0.5976) was 2.22 mPa·s, the viscosity (343.15 K, x2 = 0.672) was 1.9 mPa·s and the viscosity (343.15 K, x2 = 0.7428) was 1.45 mPa·s. For the same compound, the viscosity (343.15 K, x2 = 0.8088) was 1.17 mPa·s, the electrical conductivity (343.45 K, x2 = 0.74) was 4.56 S/m and the electrical conductivity (353.15 K, x2 = 0.74) was 5.09 S/m.
`C[S+](C)C.O=S(=O)([N-]S(=O)(=O)C(F)(F)F)C(F)(F)F` + O=C1CCCO1 gave an electrical conductivity (264.75 K, x2 = 0.8) of 0.887 S/m, an electrical conductivity (273.15 K, x2 = 0.8) of 1.11 S/m and an electrical conductivity (283.85 K, x2 = 0.8) of 1.43 S/m. It also gave an electrical conductivity (293.15 K, x2 = 0.8) of 1.75 S/m, an electrical conductivity (298.15 K, x1 = 0.0001) of 0.011 S/m and an electrical conductivity (298.15 K, x1 = 0.0002) of 0.015 S/m. The electrical conductivity (298.15 K, x1 = 0.0003) was 0.025 S/m, the electrical conductivity (298.15 K, x1 = 0.0005) was 0.038 S/m and the electrical conductivity (298.15 K, x1 = 0.0008) was 0.052 S/m. For the same compound, the electrical conductivity (298.15 K, x1 = 0.0047) was 0.226 S/m, the electrical conductivity (298.15 K, x1 = 0.0187) was 0.583 S/m and the electrical conductivity (298.15 K, x2 = 0.5398) was 1.35 S/m. For the same compound, the electrical conductivity (298.15 K, x2 = 0.5798) was 1.49 S/m, the electrical conductivity (298.15 K, x2 = 0.66) was 1.74 S/m and the electrical conductivity (298.15 K, x2 = 0.72) was 1.9 S/m. For the same compound, the electrical conductivity (298.15 K, x2 = 0.8) was 2.01 S/m, the electrical conductivity (298.15 K, x2 = 0.8695) was 1.89 S/m and the electrical conductivity (303.15 K, x2 = 0.8) was 2.11 S/m. It also gave an electrical conductivity (313.15 K, x2 = 0.8) of 2.5 S/m, an electrical conductivity (323.15 K, x2 = 0.8) of 2.9 S/m and an electrical conductivity (333.15 K, x2 = 0.8) of 3.32 S/m. The electrical conductivity (343.15 K, x2 = 0.8) was 3.74 S/m and the electrical conductivity (353.15 K, x2 = 0.8) was 4.17 S/m.

— a compilation of properties of binary mixtures (doi:10.1021/jp308139r)
